ChEMBL document CHEMBL1142522, “Hedgehog/GLI-mediated transcriptional inhibitors from Zizyphus cambodiana” (Bioorg Med Chem, 2008)
Activity calls are given as the source filed them. The calls are words filed in the database; no cut-off is given here.

Experiments:
[1] = tested on: PANC-1; experiment: Cytotoxicity against human PANC1 at 100 uM after 24 hrs by fluorometric microculture cytotoxicity assay; format: functional, cell-based
[2] = tested on: DU-145; experiment: Cytotoxicity against human DU145 cells after 24 hrs by fluorometric microculture cytotoxicity assay; format: functional, cell-based; conditions: DU-145, 24 h
[3] = tested on: PANC-1; experiment: Cytotoxicity against human PANC1 after 24 hrs by fluorometric microculture cytotoxicity assay; format: functional, cell-based; conditions: PANC-1, 24 h
[4] = tested on: DU-145; experiment: Cytotoxicity against human DU145 cells at 100 uM after 24 hrs by fluorometric microculture cytotoxicity assay; format: functional, cell-based
[5] = Cytotoxicity against mouse C3H10T1/2 cells after 24 hrs by fluorometric microculture cytotoxicity assay; format: cell-based; conditions: C3H 10T1/2, 24 h
[6] = molecular target: T1, Zinc finger protein GLI1 (Homo sapiens) (UniProt P08151); experiment: Inhibition of GLI1-mediated transcriptional activity in human HaCaT cells by luciferase based reporter gene assay; format: cell-based
T1 sequence (whole entry): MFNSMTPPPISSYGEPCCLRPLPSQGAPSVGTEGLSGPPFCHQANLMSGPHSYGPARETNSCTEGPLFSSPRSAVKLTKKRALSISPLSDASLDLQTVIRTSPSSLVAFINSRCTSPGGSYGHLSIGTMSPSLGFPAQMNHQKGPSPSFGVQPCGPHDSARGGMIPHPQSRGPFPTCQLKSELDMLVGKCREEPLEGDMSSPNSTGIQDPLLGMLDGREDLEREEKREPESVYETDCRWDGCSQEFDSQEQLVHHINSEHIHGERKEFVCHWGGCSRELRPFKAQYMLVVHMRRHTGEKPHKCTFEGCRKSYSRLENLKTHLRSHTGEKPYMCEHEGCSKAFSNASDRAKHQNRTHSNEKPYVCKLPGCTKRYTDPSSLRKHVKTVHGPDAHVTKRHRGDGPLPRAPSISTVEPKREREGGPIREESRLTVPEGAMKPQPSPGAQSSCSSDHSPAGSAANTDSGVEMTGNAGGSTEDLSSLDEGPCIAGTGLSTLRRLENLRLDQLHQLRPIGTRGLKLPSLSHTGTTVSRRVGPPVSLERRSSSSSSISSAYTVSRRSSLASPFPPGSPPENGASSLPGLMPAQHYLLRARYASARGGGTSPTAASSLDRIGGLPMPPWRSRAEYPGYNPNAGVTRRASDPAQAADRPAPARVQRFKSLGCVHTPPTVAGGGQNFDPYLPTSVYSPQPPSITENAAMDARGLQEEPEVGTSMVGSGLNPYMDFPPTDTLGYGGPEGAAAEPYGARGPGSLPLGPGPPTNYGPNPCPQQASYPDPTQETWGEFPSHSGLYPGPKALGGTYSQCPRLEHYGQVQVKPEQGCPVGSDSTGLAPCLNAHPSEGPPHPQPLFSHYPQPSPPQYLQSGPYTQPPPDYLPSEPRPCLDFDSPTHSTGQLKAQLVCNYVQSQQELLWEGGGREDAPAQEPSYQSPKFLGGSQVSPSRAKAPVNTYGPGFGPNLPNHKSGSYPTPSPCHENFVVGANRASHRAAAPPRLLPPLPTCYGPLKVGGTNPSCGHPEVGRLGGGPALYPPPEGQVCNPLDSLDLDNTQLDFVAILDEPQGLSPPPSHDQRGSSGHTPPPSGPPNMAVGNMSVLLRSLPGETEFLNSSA

[7] = molecular target: T1, Zinc finger protein GLI1 (Homo sapiens); experiment: Effect on Hh/GLI-mediated transcription in human PANC1 assessed as decrease in […] protein expression by Western blot; format: cell-based; conditions: PANC-1
[8] = molecular target: T1, Zinc finger protein GLI1 (Homo sapiens); experiment: Effect on Hh/GLI-mediated transcription in human PANC1 assessed as decrease in BCL2 protein expression by Western blot; format: cell-based; conditions: PANC-1
[9] = molecular target: T1, Zinc finger protein GLI1 (Homo sapiens); experiment: Effect on Hh/GLI-mediated transcription in human HaCaT cells assessed as reduction of BCL2 protein expression by Western blot; format: cell-based
[10] = molecular target: T1, Zinc finger protein GLI1 (Homo sapiens); experiment: Inhibition of GLI-mediated […] mRNA production in human PANC1 cells by RT-PCR analysis; format: cell-based; conditions: PANC-1
[11] = molecular target: T1, Zinc finger protein GLI1 (Homo sapiens); experiment: Effect on Hh/GLI-mediated transcription in human HaCaT cells assessed as reduction of PTCH protein expression by Western blot; format: cell-based
[12] = tested on: HaCaT; experiment: Decrease in GLI1 protein expression in human HaCaT cells by Western blot; format: functional, cell-based

In the case of `C=C(C)[C@@H]1CC[C@]2(C(=O)O)CC[C@]3(C)[C@H](CC[C@@H]4[C@@]5(C)[C@H](CO)[C@@H](O)C(C)(C)[C@@H]5CC[C@]43C)[C@@H]12` [CEANOTHANOLIC ACID], the Activity [1] is reported as “inactive”, the IC50 [2] is reported as over 200 µM and the IC50 [3] is reported as over 200 µM. For the same molecule, the Activity [4] was “inactive” and the IC50 [5] was over 200 µM.

For `C=C(C)[C@@H]1CC[C@]2(C(=O)O)CC[C@]3(C)[C@H](CC[C@@H]4[C@@]5(C)C[C@@H](O)[C@H](O)C(C)(C)[C@@H]5CC[C@]43C)[C@@H]12` [ALPHITOLIC ACID], the IC50 [2] was 70 µM, the IC50 [3] was 41 µM and the Activity [6] was “Dose-dependent effect”. For the same molecule, the IC50 [5] was 145 µM.

For `C=C(C)[C@@H]1CC[C@]2(C(=O)O)CC[C@]3(C)[C@H](CC[C@@H]4[C@@]5(C)[C@H](C=O)[C@@H](O)C(C)(C)[C@@H]5CC[C@]43C)[C@@H]12` [COLUBRINIC ACID], the IC50 [2] was 78 µM, the IC50 [3] was 43 µM and the Activity [6] was “Dose-dependent effect”. The Activity [7] was “Active”, the Activity [8] was “Active” and the Activity [9] was “Dose-dependent effect”. For the same molecule, the IC50 [5] was 167 µM, the Activity [10] was “Dose-dependent effect” and the Activity [11] was “Dose-dependent effect”.

For `C=C(C)[C@@H]1CC[C@]2(C(=O)O)CC[C@]3(C)[C@H](CC[C@@H]4[C@@]5(C)CC[C@H](O)C(C)(C)[C@@H]5CC[C@]43C)[C@@H]12` [BETULINIC ACID], the IC50 [2] was 37 µM, the IC50 [3] was 44 µM and the Activity [6] was “Dose-dependent effect”. For the same molecule, the Activity [12] was “Active”, the Activity [7] was “Active” and the Activity [8] was “Active”. The Activity [9] was “Active”, the IC50 [5] was 82 µM and the Activity [11] was “Active”.

In the case of `C=C(C)[C@@H]1CC[C@]2(C(=O)O)CC[C@]3(C)[C@H](CC[C@@H]4[C@@]5(C)[C@@H](C(=O)O)[C@H](O)C(C)(C)[C@@H]5CC[C@]43C)[C@@H]12` [CEANOTHIC ACID], the Activity [1] is reported as “inactive”, the IC50 [2] is reported as over 200 µM and the IC50 [3] is reported as 195 µM. For the same molecule, the Activity [4] was “inactive” and the IC50 [5] was over 200 µM.
